Source: patent US10550130B2, “Benzo-thiazolo-imidazole compounds and uses thereof” (KING SAUD UNIVERSITY, priority 2015, dated 2020)

Experiments:
[1] = tested on: THP-1 acute monocytic leukemia cells; test: CD34 positive cell population by flow cytometry; type: cell-based; details: 48 h
Protocol: THP-1 leukemic cells were cultured in RPMI medium in […] flask and treated with KSA-101696 for 48 h. Cells were then washed and stained with anti-CD34-FITC (BD biosciences) for 30 min at room temperature. The hematopoietic stem cell population (CD34 positive cells) was analyzed by flow cytometry to evaluate the effect of KAS-101696 on hematopoietic stem cells of leukemic origin.

[2] = tested on: MCF-7; test: Cell proliferation by 3H-thymidine uptake assay; type: cell-based; details: Homo sapiens, MCF7, 72 h, read-out: IC50, growth inhibition (3H-thymidine uptake)
Protocol: (§1) In vitro antitumor activity of the compound was assessed by ^3H-thymidine uptake. The cells were treated and they were about 60% confluent. Cells were seeded at 4×10^3 cells per well in a 96 well plate in DMEM containing 10% FBS for 24 h followed by treatment with control media (0.1% DMSO) or media containing different concentration of the compound incubated for 72 h at 37° C. in 5% CO2. Cells were labelled by addition of ^3H-thymidine (Amersham, Chiltern Hills, London, UK) at 1 μCi/well for 18 h before harvesting. ^3H-thymidine uptake was measured using a 1450 Micro Beta PLUS liquid scintillation counter (Wallac, Waltham, Mass., USA).
(§2) In another experiment, the in vitro antitumor activity of the compound was assessed by a 3H-thymidine uptake experiment. To this end, cells of the tumor cell lines MCF-7, SKBR3 and MDA-MB-468 were seeded at 4×10^3 cells per well in a 96 well plate in DMEM containing 10% FBS for 24 h followed by treatment with control media (0.1% DMSO) or media containing different concentration of the compound (5 μM, 10 μM, 20 μM, 40 μM or 80 μM final concentration of KSA-101696) and incubated for 72 h at 37° C. in 5% CO2. At about 60% confluency, cells were labelled by addition of 3H-thymidine (Amersham, Chiltern Hills, London, UK) at 1 μCi/well for 18 h before harvesting. 3H-thymidine uptake was measured using a 1450 Micro Beta PLUS liquid scintillation counter (Wallac, Waltham, Mass., USA).

[3] = tested on: SKBR3; test: Cell proliferation by 3H-thymidine uptake assay; type: cell-based; details: Homo sapiens, SK-BR-3, 72 h, read-out: IC50, growth inhibition (3H-thymidine uptake)
Protocol: as §1, §2

[4] = tested on: MDA-MB-468; test: Cell proliferation by 3H-thymidine uptake assay; type: cell-based; details: Homo sapiens, 72 h, read-out: IC50, growth inhibition (3H-thymidine uptake)
Protocol: as §1, §2

[5] = tested on: HT-29 colon cancer cells; test: CD133 expression by flow cytometry; type: cell-based; details: 10 μM, 48 h
Protocol: In a further experiment, HT-29 colon cancer cells were cultured in 6 well plates and treated by KSA-101696 (10 μM) or vehicle for 48 h. Then, cells were collected and stained with a CD133 antibody and analyzed by flow cytometry.

[6] = tested on: MCF-7 cells; test: Flow cytometric analysis of cellular DNA content (cell cycle distribution); type: cell-based; details: 20 μM, 8, 16, 12 and 48 h
Protocol: 2×10^6 cells were fixed in 1 ml ethanol (70%) for 60 min at room temperature. Harvested cells were resuspended in 1 ml Na citrate (50 mM) containing 250 μg RNase A and incubated at 50° C. for 60 min. Next, cells were resuspended in the same buffer containing 4 μg propidium iodide (PI) and incubated for 30 min before being analyzed by flow cytometry (Becton Dickinson, San. Jose, Calif., USA). The percentage of cells in various cell cycle phases was determined by using Cell Quest Pro software (Becton Dickinson).
To gain insight into the mechanism by which anti-proliferation was achieved, the effect on cell cycle distribution was investigated by fluorescence-activated cell sorting (FACS) analysis. […] This was also accompanied by a compensatory decrease in G1 phase cells. Based on histograms the compound blocks the cells on early stage of mitosis, thereby inhibiting the transition of the cells to complete mitosis.

[7] = tested on: T47D; test: Annexin V binding by flow cytometry (apoptosis); type: cell-based; details: high Numb expression, FIG. 9B
Protocol: (§3) It is known that loss of phospholipid asymmetry of the plasma membrane is an early event of apoptosis. The annexin V binds to negatively charged phospholipids, like phosphatidylserine. During apoptosis, the cells react to annexin V once chromatin condenses but before the plasma membrane loses its ability to exclude propidium iodide (PI).
(§4) Annexin-V staining was performed by using Vybrant Apoptosis Assay Kit #2 (Molecular Probes) following the manufacturer's recommendations. Annexin-V stained cells were analyzed by flow cytometry, measuring the fluorescence emission between 515 nm to 545 nm.
This experiment was carried out with three breast cancer cell lines: MDA-MB-468, SKBR-3 and T47D. The MDA-MB-468 cell line represents the basal like breast cancer (which is a breast cancer subtype with a more aggressive clinical behavior). The SKBR-3 cell line represents Her-2 overexpressing breast cancer. […] The T47D cell line represents ER/PR positive breast cancer. Unlike MDA-MB-468 cells or SKBR-3 cells, T47D cells are highly differentiated cells and respond very well to hormonal therapy and chemotherapy.
(§5) In a next step, it was investigated whether there was a correlation between Numb protein expression and sensitivity of a cell line to the apoptotic effects of KSA-101696. Apoptotic cells were determined by Annexin-V staining as described in Example 1.

[8] = tested on: SKBR-3; test: Annexin V binding by flow cytometry (apoptosis); type: cell-based
Protocol: as §3, §4
(§6) To evaluate the selective-apoptotic effect of the compound in cancer cells but not normal cells, the cancer cell lines SKBR3, MDA-MB-468, and normal cells MCF-10 A, HSFN1 (human foreskin cells) and BM4 (bone marrow derived mesenchymal stem cells) were used. […] Upon treatment of cells with 20 μM for 48 h, cells were stained with Annexin-V and PI and binding of Annexin-V and PI to the cells was determined by flow cytometry.
as §5

[9] = tested on: MDA-MB-468; test: Annexin V binding by flow cytometry (apoptosis); type: cell-based
Protocol: as §3, §4, §6, §5

[10] = tested on: MDA-MB-468 tumors; test: Antitumor activity in mice; type: in vivo, Nude mice
Protocol: Nude mice (Jackson Laboratories, Bar Harbor, Me., USA) were injected with 4×10^6 cells of MDA-MB-468 in the mammary pad and tumor size was measured weekly using a caliper. When the tumor reached approximately 100 mm^3 diameter the mice were divided into a control group and a group treated with KSA-101696 200 mg/kg via intraperitoneal injection (three cycles every four days). Apparent toxicity as determined by body weight loss is recorded by measuring total body weight. Breeding, care and sacrifice of the animals were carried out in accordance with the protocols approved by the Animal Care and Use Committee of the King Faisal Specialist Hospital and Research Centre.
Because of the observed selective cytotoxic effect of compound KSA-101696 against cancer cells and the tolerance of normal cells and normal stem cells in vitro, a high dose of compound KSA-101696 (200 mg/kg) was used on mice.

COc1ccc(-c2csc3nc4ccccc4n23)cc1 [KSA-101696, 3-(4-methoxyphenyl)benzo[4,5]imidazo[2,1-b]thiazole]
CD34+ cells percentage [1]: reduction of CD34^+ cells percentage | IC50 [2]: ~5 µM | IC50 [3]: 7.5 µM | IC50 [4]: ~2.5 µM | expression of colon cancer stem cell marker CD133 [5]: inhibition in the expression of the colon cancer stem cell marker CD133 | cell cycle distribution [6]: accumulation of cells in G2/M phase in a time-dependent manner | apoptosis (Annexin-V) in relation to Numb expression [7]: did not have such effects | apoptosis (Annexin-V) in relation to Numb expression ([8]; SKBR-3, low levels of Numb expression, FIG. 9B): increased apoptosis | apoptosis (Annexin-V and PI) ([8]; SKBR-3, 20 μM, 48 h): induced apoptosis | apoptosis (Annexin-V) in relation to Numb expression ([9]; MDA-MB-468, low levels of Numb expression, FIG. 9B): increased apoptosis | apoptosis (Annexin-V and PI) ([9]; MDA-MB-468, 20 μM, 48 h): induced apoptosis | reduction (shrinking) of tumor volume ([10]; 200 mg/kg intraperitoneal, three doses, mice bearing MDA-MB-468 tumors): 70% | ED50 ([10]; Mus musculus, MDA-MB-468, ip, intraperitoneal, read-out: ED50 (dose that shrinks the tumor volume by 50% at the end of treatment)): 50 mg/kg
